From PMC11728000, “Antitumor Activity and Multi-Target Mechanism of Phenolic Schiff Bases Bearing Methanesulfonamide Fragments: Cell Cycle Analysis and a Molecular Modeling Study” (International Journal of Molecular Sciences, 2024)

How the values were obtained:
CCRF-CEM = experiment: NCI anticancer screening (SRB), Leukemia subpanel; assay type: cell-based, human; conditions: 10.0 µM in one dose
HL-60(TB) = experiment: NCI anticancer screening (SRB), Leukemia subpanel; assay type: cell-based, human; conditions: 10.0 µM in one dose
NCI-H23 [1] = experiment: NCI anticancer screening (SRB), Non-Small Cell Lung Cancer subpanel; assay type: cell-based, human; conditions: 10.0 µM in one dose
KM12 = experiment: NCI anticancer screening (SRB), Colon Cancer subpanel; assay type: cell-based, human; conditions: 10.0 µM in one dose
SF-268 = experiment: NCI anticancer screening (SRB), CNS Cancer subpanel; assay type: cell-based, human; conditions: 10.0 µM in one dose
LOX IMVI = experiment: NCI anticancer screening (SRB), Melanoma subpanel; assay type: cell-based, human; conditions: 10.0 µM in one dose
UACC-62 = experiment: NCI anticancer screening (SRB), Melanoma subpanel; assay type: cell-based, human; conditions: 10.0 µM in one dose
IGROV1 = experiment: NCI anticancer screening (SRB), Ovarian Cancer subpanel; assay type: cell-based, human; conditions: 10.0 µM in one dose
OVCAR-5 = experiment: as above; assay type: cell-based, human; conditions: 10.0 µM in one dose
OVCAR-8 = experiment: as above; assay type: cell-based, human; conditions: 10.0 µM in one dose
SK-OV-3 = experiment: as above; assay type: cell-based, human; conditions: 10.0 µM in one dose
786-0 = experiment: NCI anticancer screening (SRB), Renal Cancer subpanel; assay type: cell-based, human; conditions: 10.0 µM in one dose
SN12C = experiment: as above; assay type: cell-based, human; conditions: 10.0 µM in one dose
HS 578T = experiment: NCI anticancer screening (SRB), Breast Cancer subpanel; assay type: cell-based, human; conditions: 10.0 µM in one dose
EGFR = EGFR (Homo sapiens, UniProt P00533); experiment: EGFR tyrosine kinase inhibition assay (Kinase-Glo MAX)
EKVX = tested on: EKVX; set-up: method as in https://dtp.cancer.gov/dtpstandard/dwindex/index.jsp; conditions: ref https://dtp.cancer.gov/dtpstandard/dwindex/index.jsp; cited from earlier work
NCI-H23 [2] = tested on: NCI-H23; set-up: method as in https://dtp.cancer.gov/dtpstandard/dwindex/index.jsp; conditions: ref https://dtp.cancer.gov/dtpstandard/dwindex/index.jsp; cited from earlier work
COLO 205 = tested on: COLO 205; set-up: method as in https://dtp.cancer.gov/dtpstandard/dwindex/index.jsp; conditions: ref https://dtp.cancer.gov/dtpstandard/dwindex/index.jsp; cited from earlier work
HCC-2998 = tested on: HCC-2998; set-up: method as in https://dtp.cancer.gov/dtpstandard/dwindex/index.jsp; conditions: ref https://dtp.cancer.gov/dtpstandard/dwindex/index.jsp; cited from earlier work
HT29 = tested on: HT29; set-up: method as in https://dtp.cancer.gov/dtpstandard/dwindex/index.jsp; conditions: ref https://dtp.cancer.gov/dtpstandard/dwindex/index.jsp; cited from earlier work
SW-620 = tested on: SW-620; set-up: method as in https://dtp.cancer.gov/dtpstandard/dwindex/index.jsp; conditions: ref https://dtp.cancer.gov/dtpstandard/dwindex/index.jsp; cited from earlier work
SNB-75 = tested on: SNB-75; set-up: method as in https://dtp.cancer.gov/dtpstandard/dwindex/index.jsp; conditions: ref https://dtp.cancer.gov/dtpstandard/dwindex/index.jsp; cited from earlier work
M14 = tested on: M14; set-up: method as in https://dtp.cancer.gov/dtpstandard/dwindex/index.jsp; conditions: ref https://dtp.cancer.gov/dtpstandard/dwindex/index.jsp; cited from earlier work
SK-MEL-2 = tested on: SK-MEL-2; set-up: method as in https://dtp.cancer.gov/dtpstandard/dwindex/index.jsp; conditions: ref https://dtp.cancer.gov/dtpstandard/dwindex/index.jsp; cited from earlier work
OVCAR-4 = tested on: OVCAR-4; set-up: method as in https://dtp.cancer.gov/dtpstandard/dwindex/index.jsp; conditions: ref https://dtp.cancer.gov/dtpstandard/dwindex/index.jsp; cited from earlier work
NCI/ADR-RES = tested on: NCI/ADR-RES; set-up: method as in https://dtp.cancer.gov/dtpstandard/dwindex/index.jsp; conditions: ref https://dtp.cancer.gov/dtpstandard/dwindex/index.jsp; cited from earlier work
A498 = tested on: A498; set-up: method as in https://dtp.cancer.gov/dtpstandard/dwindex/index.jsp; conditions: ref https://dtp.cancer.gov/dtpstandard/dwindex/index.jsp; cited from earlier work
CAKI-1 = tested on: CAKI-1; set-up: method as in https://dtp.cancer.gov/dtpstandard/dwindex/index.jsp; conditions: ref https://dtp.cancer.gov/dtpstandard/dwindex/index.jsp; cited from earlier work
TK-10 = tested on: TK-10; set-up: method as in https://dtp.cancer.gov/dtpstandard/dwindex/index.jsp; conditions: ref https://dtp.cancer.gov/dtpstandard/dwindex/index.jsp; cited from earlier work
DU-145 = tested on: DU-145; set-up: method as in https://dtp.cancer.gov/dtpstandard/dwindex/index.jsp; conditions: ref https://dtp.cancer.gov/dtpstandard/dwindex/index.jsp; cited from earlier work
MDA-MB-231/ATCC = tested on: MDA-MB-231/ATCC; set-up: method as in https://dtp.cancer.gov/dtpstandard/dwindex/index.jsp; conditions: ref https://dtp.cancer.gov/dtpstandard/dwindex/index.jsp; cited from earlier work
MDA-MB-468 = tested on: MDA-MB-468; set-up: method as in https://dtp.cancer.gov/dtpstandard/dwindex/index.jsp; conditions: ref https://dtp.cancer.gov/dtpstandard/dwindex/index.jsp; cited from earlier work
[3] = tested on: NSC Lung Cancer subpanel tumor cell lines; conditions: cited from earlier work; for CC50: read-out: LC50, subpanel average, ref https://dtp.cancer.gov/dtpstandard/dwindex/index.jsp; for TGI, subpanel average: ref https://dtp.cancer.gov/dtpstandard/dwindex/index.jsp; for GI50: read-out: GI50, subpanel average, ref https://dtp.cancer.gov/dtpstandard/dwindex/index.jsp
[4] = tested on: Colon Cancer subpanel tumor cell lines; conditions: cited from earlier work; for GI50: read-out: GI50, subpanel average, ref https://dtp.cancer.gov/dtpstandard/dwindex/index.jsp; for CC50: read-out: LC50, subpanel average, ref https://dtp.cancer.gov/dtpstandard/dwindex/index.jsp; for TGI, subpanel average: ref https://dtp.cancer.gov/dtpstandard/dwindex/index.jsp
[5] = tested on: Melanoma subpanel tumor cell lines; conditions: cited from earlier work; for GI50: read-out: GI50, subpanel average, ref https://dtp.cancer.gov/dtpstandard/dwindex/index.jsp; for CC50: read-out: LC50, subpanel average, ref https://dtp.cancer.gov/dtpstandard/dwindex/index.jsp; for TGI, subpanel average: ref https://dtp.cancer.gov/dtpstandard/dwindex/index.jsp
[6] = tested on: Renal Cancer subpanel tumor cell lines; conditions: cited from earlier work; for GI50: read-out: GI50, subpanel average, ref https://dtp.cancer.gov/dtpstandard/dwindex/index.jsp; for CC50: read-out: LC50, subpanel average, ref https://dtp.cancer.gov/dtpstandard/dwindex/index.jsp; for TGI, subpanel average: ref https://dtp.cancer.gov/dtpstandard/dwindex/index.jsp
[7] = tested on: 59 human cancer cell lines; conditions: full panel mean-graph midpoint, ref https://dtp.cancer.gov/dtpstandard/dwindex/index.jsp, cited from earlier work; for GI50: read-out: GI50 MG-MID; for CC50: read-out: LC50 MG-MID
SF-295 = tested on: SF-295; set-up: method as in https://dtp.cancer.gov/dtpstandard/dwindex/index.jsp; conditions: ref https://dtp.cancer.gov/dtpstandard/dwindex/index.jsp; cited from earlier work
SF-539 = tested on: SF-539; set-up: method as in https://dtp.cancer.gov/dtpstandard/dwindex/index.jsp; conditions: ref https://dtp.cancer.gov/dtpstandard/dwindex/index.jsp; cited from earlier work
MDA-MB-435 = tested on: MDA-MB-435; set-up: method as in https://dtp.cancer.gov/dtpstandard/dwindex/index.jsp; conditions: ref https://dtp.cancer.gov/dtpstandard/dwindex/index.jsp; cited from earlier work

Sequence of EGFR (P00533 25-1210): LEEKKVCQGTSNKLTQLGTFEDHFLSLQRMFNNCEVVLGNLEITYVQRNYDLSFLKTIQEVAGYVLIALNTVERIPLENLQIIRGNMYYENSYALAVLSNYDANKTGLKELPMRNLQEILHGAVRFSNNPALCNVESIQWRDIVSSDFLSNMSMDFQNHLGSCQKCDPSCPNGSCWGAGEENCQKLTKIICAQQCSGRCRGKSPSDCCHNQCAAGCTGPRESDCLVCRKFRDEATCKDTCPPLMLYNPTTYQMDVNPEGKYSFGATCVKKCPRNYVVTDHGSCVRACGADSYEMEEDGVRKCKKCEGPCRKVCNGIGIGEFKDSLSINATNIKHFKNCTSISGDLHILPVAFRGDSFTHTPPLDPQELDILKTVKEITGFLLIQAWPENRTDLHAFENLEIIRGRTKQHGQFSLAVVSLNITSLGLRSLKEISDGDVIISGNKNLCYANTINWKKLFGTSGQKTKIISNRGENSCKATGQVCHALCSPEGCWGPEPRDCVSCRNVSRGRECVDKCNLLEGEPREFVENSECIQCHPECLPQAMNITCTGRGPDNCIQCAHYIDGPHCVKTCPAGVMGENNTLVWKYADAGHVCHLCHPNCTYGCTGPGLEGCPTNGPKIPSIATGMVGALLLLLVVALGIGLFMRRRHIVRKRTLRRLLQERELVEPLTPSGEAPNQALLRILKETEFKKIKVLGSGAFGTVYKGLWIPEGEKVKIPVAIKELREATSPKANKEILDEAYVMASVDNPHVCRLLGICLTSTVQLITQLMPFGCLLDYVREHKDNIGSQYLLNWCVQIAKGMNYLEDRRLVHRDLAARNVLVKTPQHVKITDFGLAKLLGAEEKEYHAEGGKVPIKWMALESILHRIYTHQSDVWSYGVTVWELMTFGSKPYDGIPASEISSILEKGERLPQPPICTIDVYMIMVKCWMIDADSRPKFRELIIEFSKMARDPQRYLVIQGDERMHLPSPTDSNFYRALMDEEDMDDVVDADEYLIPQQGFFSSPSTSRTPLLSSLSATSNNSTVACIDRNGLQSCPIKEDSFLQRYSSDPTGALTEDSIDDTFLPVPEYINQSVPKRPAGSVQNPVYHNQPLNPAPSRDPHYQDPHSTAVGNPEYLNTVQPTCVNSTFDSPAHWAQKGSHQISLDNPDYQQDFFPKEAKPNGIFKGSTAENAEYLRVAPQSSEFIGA

Row | SMILES | GI50 (EKVX) | GI50 (NCI-H23 [2]) | GI50 (COLO 205) | GI50 (HCC-2998) | GI50 (HT29) | GI50 (M14) | GI50 (SK-MEL-2) | GI50 (NCI/ADR-RES) | GI50 (TK-10) | GI50 (DU-145) | GI50 (MDA-MB-231/ATCC) | TGI, subpanel average [3] | GI50 [4] | TGI, subpanel average [4] | GI50 [5] | TGI, subpanel average [5] | GI50 [6] | TGI, subpanel average [6] | TGI MG-MID [7] | GI50 [7] | other results
1 | CS(=O)(=O)Nc1ccc(C(=O)NN=Cc2ccccc2O)cc1 [Compound 7] |  |  |  |  |  |  |  |  |  |  |  |  |  |  |  |  |  |  |  |  | GI% (CCRF-CEM): 63%; GI% (HL-60(TB)): 22%; GI% (NCI-H23 [1]): 27%; GI% (KM12): 35%; GI% (SF-268): 48%; GI% (LOX IMVI): 53%; GI% (UACC-62): 35%; GI% (IGROV1): 25%; GI% (OVCAR-5): 23%; GI% (OVCAR-8): 32%; GI% (SK-OV-3): 42%; GI% (786-0): 25%; GI% (SN12C): 23%; GI% (HS 578T): 11%; IC50 (EGFR): 0.752 ± 0.05 µM
2 | CNC(=O)c1cc(Oc2ccc(NC(=O)Nc3ccc(Cl)c(C(F)(F)F)c3)cc2)ccn1 [Sorafenib, sorafenib] | 2.51 µM | 1.99 µM | 1.99 µM | 3.16 µM | 1.99 µM | 1.99 µM | 1.99 µM | 2.51 µM | 3.98 µM | 3.16 µM | 1.26 µM | 7.99 µM | 2.19 µM | 7.94 µM | 1.87 µM | 6.29 µM | 2.86 µM | 10.86 µM | 9.11 µM | 2.33 µM | GI50 (SW-620): 2.51 µM; GI50 (SNB-75): 3.16 µM; GI50 (OVCAR-4): 3.16 µM; GI50 (A498): 2.51 µM; GI50 (CAKI-1): 3.16 µM; GI50 (MDA-MB-468): 1.99 µM; CC50 [3]: 49.1 µM; CC50 [4]: 38.1 µM; CC50 [5]: 28.6 µM; CC50 [6]: 54.8 µM; CC50 [7]: 43.1 µM
3 | Cc1ccc(-c2cc(C(F)(F)F)nn2-c2ccc(S(N)(=O)=O)cc2)cc1 [Celecoxib, celecoxib] | 19.9 µM | 15.8 µM | 15.8 µM | 15.8 µM | 15.8 µM | 63.1 µM | 15.8 µM | 15.8 µM | 19.9 µM | 15.8 µM | 15.8 µM | 41.93 µM | 20.7 µM | 41.39 µM | 22.5 µM | 38.49 µM | 19.9 µM | 41.19 µM | 34.0 µM | 17.5 µM | GI50 (SW-620): 15.8 µM; GI50 (SF-295): 15.8 µM; GI50 (SF-539): 19.9 µM; GI50 (SNB-75): 15.8 µM; GI50 (MDA-MB-435): 15.8 µM; GI50 (OVCAR-4): 12.6 µM; GI50 (A498): 15.8 µM; GI50 (CAKI-1): 19.9 µM; GI50 [3]: 25.1 µM; CC50 [3]: 67.1 µM; CC50 [4]: 66.5 µM; CC50 [5]: 64.3 µM; CC50 [6]: 61.2 µM; CC50 [7]: 63.3 µM
4 | COc1cc2ncnc(Nc3ccc(F)c(Cl)c3)c2cc1OCCCN1CCOCC1 [Gefitinib, gefitinib] |  | 2.51 µM | 7.94 µM | 2.51 µM | 3.98 µM | 2 µM | 10 µM | 1.26 µM | 0.794 µM | 1.58 µM | 3.98 µM | 13.86 µM | 5.23 µM | 18.47 µM | 3.68 µM | 12.49 µM | 1.41 µM | 12.50 µM | 14.3 µM | 2.1 µM | GI50 (SF-295): 10 µM; GI50 (SF-539): 10 µM; GI50 (MDA-MB-435): 3.16 µM; GI50 (MDA-MB-468): 0.0126 µM; GI50 [3]: 2.05 µM
5 | C#Cc1cccc(Nc2ncnc3cc(OCCOC)c(OCCOC)cc23)c1 [Erlotinib, erlotinib] | 0.199 µM | 31.6 µM | 50.1 µM | 79.4 µM | 63.1 µM | 6.31 µM | 6.31 µM | 7.94 µM | 0.251 µM | 1.99 µM | 6.31 µM | 73.76 µM | 51.7 µM | c (compounds showed values ≥ 100 μM) | 23.7 µM | 77.89 µM | 2.46 µM | 42.59 µM | 66.3 µM | 7.68 µM | GI50 (SW-620): 79.4 µM; GI50 (SF-295): 15.8 µM; GI50 (SF-539): 19.9 µM; GI50 (SNB-75): 12.6 µM; GI50 (MDA-MB-435): 19.9 µM; GI50 (OVCAR-4): 10 µM; GI50 (A498): 2.51 µM; GI50 (CAKI-1): 0.199 µM; GI50 (MDA-MB-468): 0.126 µM; GI50 [3]: 13.1 µM; CC50 [3]: 97.7 µM; CC50 [4]: > 100 µM; CC50 [5]: 93.3 µM; CC50 [6]: 89.2 µM; CC50 [7]: 95.6 µM
